# Measurements published in patent US20260001914A1, “MACROCYCLIC PEPTIDES TARGETING KRAS” (Merck Sharp & Dohme LLC, priority 2022, published 2026).
# *1 amine or outer side, *2 acyl side, *3 side chain or, on linkers, in order; H or OH if unused. Where a SMILES comes first, the peptide text is derived from it. Bridges are numbered along the chain shown (N, C = ends). [ ]: non-standard residue; d: D form. Ala(1-bicyclo(1.1.1)pentyl) = N[C@@H](CC12CC(C1)C2)C(=O)O; Ala(pyrimidin-5-yl) = N[C@@H](Cc1cncnc1)C(=O)O; X36 = CN([C@@H](Cc1cnn(C)c1)C(=O)[*:2])[*:1]; X8 = CN([C@@H](Cc1ccc(F)nc1)C(=O)[*:2])[*:1]; Ala(thiazol-5-yl) = N[C@@H](Cc1cncs1)C(=O)O; NMePhe(3-Me) = CN[C@@H](Cc1cccc(C)c1)C(=O)O; NMePhe(4-F) = CN[C@@H](Cc1ccc(F)cc1)C(=O)O; Phe(2,6-F2) = N[C@@H](Cc1c(F)cccc1F)C(=O)O; X42 = O=C([C@H](Cc1cc(F)ncc1F)N[*:1])[*:2]; X24 = O=C([C@H](Cc1ccncc1Cl)N[*:1])[*:2]; X11 = CC(C)(F)CC[C@H](N[*:1])C(=O)[*:2]; X30 = O=C([C@H](Cc1ncccc1F)N[*:1])[*:2]; NMeAha = CN[C@@H](CCN=[N+]=[N-])C(=O)O; Nle(5,5-F2) = CC(F)(F)CC[C@H](N)C(=O)O; Phe(4-F) = N[C@@H](Cc1ccc(F)cc1)C(=O)O; X35 = CN([C@@H](CCCF)C(=O)[*:2])[*:1]; Phe(2-F) = N[C@@H](Cc1ccccc1F)C(=O)O; X31 = O=C([C@H](CCC1CC1)N[*:1])[*:2]; NMe3Pal = CN[C@@H](Cc1cccnc1)C(=O)O; X1 = O=C(C12CC(CN[*:1])(C1)C2)[*:2]; X17 = O=C([C@H](CCCCF)N[*:1])[*:2]; Ala(cPr) = N[C@@H](CC1CC1)C(=O)O; NMeF = CN[C@@H](Cc1ccccc1)C(=O)O; PhLac = O=C(O)[C@@H](O)Cc1ccccc1; 3Pal = N[C@@H](Cc1cccnc1)C(=O)O; Ahp(2) = CCCCC[C@H](N)C(=O)O; Cba = N[C@@H](CC1CCC1)C(=O)O; hLeu = CC(C)CC[C@H](N)C(=O)O; NMeS = CN[C@@H](CO)C(=O)O; αMeC = C[C@](N)(CS)C(=O)O; NMeA = CN[C@@H](C)C(=O)O; Nle = CCCC[C@H](N)C(=O)O
# Target: phosphorylation levels of ERK1/2 in AsPC-1 (homozygous KRAS-G12D) cells (Homo sapiens, UniProt P01116, G12D)
# Test: Cellular phospho-ERK assay in AsPC-1 cells (Alpha Screen), assay medium without fetal bovine serum;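 note: signal taken as phospho-ERK over total ERK per well, both detected in one multiplex bead assay, EC50 from four-parameter logistic fit of dose-response curves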
# Format: cell-based
# Details: phospho-ERK AlphaScreen, 18 h
# Sequence of phosphorylation levels of ERK1/2 in AsPC-1 (homozygous KRAS-G12D) cells (P01116 1-186 G12D): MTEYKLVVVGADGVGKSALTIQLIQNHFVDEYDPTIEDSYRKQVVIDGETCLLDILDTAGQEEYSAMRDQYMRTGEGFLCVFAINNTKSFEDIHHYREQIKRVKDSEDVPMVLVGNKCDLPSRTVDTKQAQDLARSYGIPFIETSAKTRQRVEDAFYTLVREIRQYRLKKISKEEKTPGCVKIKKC
row,Structure (SMILES),EC50 [µM]
1,"CCCC[C@@H]1NC(=O)[C@H](Cc2cncnc2)NC(=O)[C@H](C)N(C)C(=O)[C@H](Cc2ccccc2)OC(=O)C23CC(CNC(=O)[C@H](Cc4cccc(C)c4)N(C)C(=O)[C@H](CCCC)NC(=O)[C@H](Cc4ccccc4F)NC1=O)(C2)C3 [compound 172, cyclo(FLac-NMeA-PyrimAla-Nle-Phe2F-Nle-NMePhe3Me-amBCP)] (cyclo([NMeA][Ala(pyrimidin-5-yl)][Nle][Phe(2-F)][Nle][NMePhe(3-Me)][X1][PhLac]))",0.256
2,"CCCC[C@@H]1NC(=O)[C@H](Cc2cccnc2)NC(=O)[C@H](CCN=[N+]=[N-])N(C)C(=O)[C@H](Cc2ccccc2)OC(=O)C23CC(CNC(=O)[C@H](Cc4cccnc4)N(C)C(=O)[C@H](CCCC)NC(=O)[C@H](Cc4ccccc4F)NC1=O)(C2)C3 [compound 249, cyclo(FLac-NMeDabN3-3Pal-Nle-Phe2F-Nle-NMe3Pal-amBCP)] (cyclo([3Pal][Nle][Phe(2-F)][Nle][NMe3Pal][X1][PhLac][NMeAha]))",3.95
3,"Cc1cccc(C[C@H]2C(=O)NCC34CC(C3)(C4)C(=O)O[C@@H](Cc3ccccc3)C(=O)N(C)[C@@H](C)C(=O)N[C@@H](Cc3cncnc3)C(=O)N[C@@H](CC3CC3)C(=O)N[C@@H](Cc3ccccc3F)C(=O)N[C@@H](CCC(C)(F)F)C(=O)N2C)c1 [compound 275, cyclo(FLac-NMeA-PyrimAla-cPrA-Phe2F-Nle3F2-NMePhe3Me-amBCP)] (cyclo([Ala(cPr)][Phe(2-F)][Nle(5,5-F2)][NMePhe(3-Me)][X1][PhLac][NMeA][Ala(pyrimidin-5-yl)]))",0.924
4,"CCCC[C@@H]1NC(=O)[C@H](Cc2ccc(O)cc2)NC(=O)[C@H](CC2CCCCC2)NC(=O)[C@H](CCCCN)NC(=O)[C@H](CCCNC(=N)N)NC(=O)[C@H](Cc2cccc3ccccc23)NC(=O)CSC[C@H](C(N)=O)NC(=O)[C@H](Cc2ccccc2)N(C)C1=O [compound 139, cyclo(INal-R-K-Cha-Y-Nle-NMeF-dCl-ClAc)]",> 50.8
5,"CC(C)CC[C@@H]1NC(=O)[C@H](Cc2ccccc2F)NC(=O)[C@H](CC23CC(C2)C3)NC(=O)[C@H](Cc2cncnc2)NC(=O)[C@H](C)N(C)C(=O)[C@H](Cc2ccccc2)OC(=O)C23CC(CNC(=O)[C@H](Cc4ccccc4)N(C)C1=O)(C2)C3 [compound 272, cyclo(FLac-NMeA-PyrimAla-AlaPent-Phe2F-hL-NMeF-amBCP)] (cyclo([NMeA][Ala(pyrimidin-5-yl)][Ala(1-bicyclo(1.1.1)pentyl)][Phe(2-F)][hLeu][NMeF][X1][PhLac]))",2.95
6,"CCCC[C@@H]1NC(=O)[C@H](Cc2cncnc2)NC(=O)[C@H](C)N(C)C(=O)[C@H](Cc2ccccc2)OC(=O)C23CC(CNC(=O)[C@H](Cc4ccc(F)cc4)N(C)C(=O)[C@H](CCCC)NC(=O)[C@H](Cc4ccccc4F)NC1=O)(C2)C3 [compound 173, cyclo(FLac-NMeA-PyrimAla-Nle-Phe2F-Nle-NMePhe4F-amBCP)] (cyclo([NMeA][Ala(pyrimidin-5-yl)][Nle][Phe(2-F)][Nle][NMePhe(4-F)][X1][PhLac]))",0.994
7,"CC(C)CC[C@@H]1NC(=O)[C@H](Cc2c(F)cccc2F)NC(=O)[C@H](CC2CCC2)NC(=O)[C@H](Cc2cncnc2)NC(=O)[C@H](C)N(C)C(=O)[C@H](Cc2ccccc2)OC(=O)C23CC(CNC(=O)[C@H](Cc4ccccc4)N(C)C1=O)(C2)C3 [compound 226, cyclo(FLac-NMeA-PyrimAla-cBuA-Phe26F2-hL-NMeF-amBCP)] (cyclo([Cba][Phe(2,6-F2)][hLeu][NMeF][X1][PhLac][NMeA][Ala(pyrimidin-5-yl)]))",0.355
8,"CCCC[C@@H]1NC(=O)[C@H](Cc2cccnc2)NC(=O)[C@H](CO)N(C)C(=O)[C@H](Cc2ccccc2)OC(=O)C23CC(CNC(=O)[C@H](Cc4cccnc4)N(C)C(=O)[C@H](CCCC)NC(=O)[C@H](Cc4ccccc4F)NC1=O)(C2)C3 [compound 118, cyclo(FLac-NMeS-3Pal-Nle-Phe2F-Nle-NMe3Pal-amBCP)] (cyclo([3Pal][Nle][Phe(2-F)][Nle][NMe3Pal][X1][PhLac][NMeS]))",> 50.8
9,"CCCC[C@@H]1NC(=O)[C@H](Cc2cccnc2)NC(=O)[C@H](C)N(C)C(=O)[C@H](Cc2ccccc2)OC(=O)C23CC(CNC(=O)[C@H](Cc4cnn(C)c4)N(C)C(=O)[C@H](CCCC)NC(=O)[C@H](Cc4ccccc4F)NC1=O)(C2)C3 [compound 403, cyclo(FLac-NMeA-3Pal-Nle-Phe2F-Nle-NMeAla4PyzlMe-amBCP)] (cyclo([3Pal][Nle][Phe(2-F)][Nle][X36][X1][PhLac][NMeA]))",18.6
10,"CCCC[C@@H]1NC(=O)[C@H](Cc2cccnc2)NC(=O)[C@H](C)N(C)C(=O)[C@H](Cc2ccc(F)cc2)NC(=O)C23CC(CNC(=O)[C@H](Cc4cccnc4)N(C)C(=O)[C@H](CCCC)NC(=O)[C@H](Cc4ccccc4F)NC1=O)(C2)C3 [compound 167, cyclo(Phe4F-NMeA-3Pal-Nle-Phe2F-Nle-NMe3Pal-amBCP)] (cyclo([3Pal][Nle][Phe(2-F)][Nle][NMe3Pal][X1][Phe(4-F)][NMeA]))",42.8
11,"CCCC[C@@H]1NC(=O)[C@H](Cc2ccccc2F)NC(=O)[C@H](CC(C)C)NC(=O)[C@H](Cc2cncnc2)NC(=O)[C@H](C)N(C)C(=O)[C@H](Cc2ccccc2)OC(=O)C23CC(CNC(=O)[C@H](Cc4cccnc4)N(C)C1=O)(C2)C3 [compound 129, cyclo(FLac-NMeA-PyrimAla-L-Phe2F-Nle-NMe3Pal-amBCP)] (cyclo([PhLac][NMeA][Ala(pyrimidin-5-yl)]L[Phe(2-F)][Nle][NMe3Pal][X1]))",> 50.8
12,"CCCCC[C@@H]1NC(=O)[C@H](Cc2ccc(OC)cc2)NC(=O)[C@H](CC2CCC2)NC(=O)[C@H](Cc2ccc(=O)[nH]c2)NC(=O)[C@H](CCCNC(=N)N)NC(=O)[C@H](Cc2ccccc2)NC(=O)CSC[C@@](C)(C(N)=O)NC(=O)[C@H](Cc2ccccc2)N(C)C1=O [compound 369, cyclo(F-R-4CO3Pal-cBuA-TyrOMe-Abp-NMeF-aMeCl-ClAc)]",> 50.8
13,"CCCC[C@@H]1NC(=O)[C@H](Cc2cccnc2)NC(=O)[C@H](CCCF)N(C)C(=O)[C@H](Cc2ccccc2)OC(=O)C23CC(CNC(=O)[C@H](Cc4cccnc4)N(C)C(=O)[C@H](CCCC)NC(=O)[C@H](Cc4ccccc4F)NC1=O)(C2)C3 [compound 239, cyclo(FLac-NMeNvaF-3Pal-Nle-Phe2F-Nle-NMe3Pal-amBCP)] (cyclo([3Pal][Nle][Phe(2-F)][Nle][NMe3Pal][X1][PhLac][X35]))",20.7
14,"CC(C)CC[C@@H]1NC(=O)[C@H](Cc2cc(F)ncc2F)NC(=O)[C@H](CC2CC2)NC(=O)[C@H](Cc2cncnc2)NC(=O)[C@H](C)N(C)C(=O)[C@H](Cc2ccccc2)OC(=O)C23CC(CNC(=O)[C@H](Cc4ccccc4)N(C)C1=O)(C2)C3 [compound 280, cyclo(FLac-NMcA-PyrimAla-cPrA-4Pal25F2-hL-NMeF-amBCP)] (cyclo([Ala(cPr)][X42][hLeu][NMeF][X1][PhLac][NMeA][Ala(pyrimidin-5-yl)]))",1.23
15,"CC(C)CC[C@@H]1NC(=O)[C@H](Cc2ccccc2F)NC(=O)[C@H](CC2CC2)NC(=O)[C@H](Cc2cncnc2)NC(=O)[C@H](C)N(C)C(=O)[C@H](Cc2ccccc2)OC(=O)C23CC(CNC(=O)[C@H](Cc4ccc(F)nc4)N(C)C1=O)(C2)C3 [compound 339, cyclo(FLac-NMeA-PyrimAla-cPrA-Phe2F-hL-NMe3Pal4F-amBCP)] (cyclo([Ala(cPr)][Phe(2-F)][hLeu][X8][X1][PhLac][NMeA][Ala(pyrimidin-5-yl)]))",1.65
16,"C[C@H]1C(=O)N[C@@H](Cc2cncnc2)C(=O)N[C@@H](CC2CC2)C(=O)N[C@@H](Cc2ccncc2Cl)C(=O)N[C@@H](CCC(C)(C)F)C(=O)N(C)[C@@H](Cc2ccccc2)C(=O)NCC23CC(C2)(C3)C(=O)O[C@@H](Cc2ccccc2)C(=O)N1C [compound 299, cyclo(FLac-NMeA-PyrimAla-cPrA-4Pal2Cl-hL3F-NMeF-amBCP)] (cyclo([Ala(cPr)][X24][X11][NMeF][X1][PhLac][NMeA][Ala(pyrimidin-5-yl)]))",> 50.8
17,"CCCC[C@@H]1NC(=O)[C@H](Cc2ccccc2F)NC(=O)[C@H](CCCCF)NC(=O)[C@H](Cc2cncnc2)NC(=O)[C@H](C)N(C)C(=O)[C@H](Cc2ccccc2)OC(=O)C23CC(CNC(=O)[C@H](Cc4ccccc4)N(C)C1=O)(C2)C3 [compound 130, cyclo(FLac-NMeA-PyrimAla-NleF-Phe2F-Nle-NMeF-amBCP)] (cyclo([NMeA][Ala(pyrimidin-5-yl)][X17][Phe(2-F)][Nle][NMeF][X1][PhLac]))",2.03
18,"CCCCC[C@@H]1NC(=O)[C@H](Cc2ccc(OC)cc2)NC(=O)[C@H](CC2CCC2)NC(=O)[C@H](Cc2cncs2)NC(=O)[C@H](CCCNC(=N)N)NC(=O)[C@H](Cc2ccccc2)NC(=O)CSC[C@@](C)(C(N)=O)NC(=O)[C@H](Cc2ccccc2)N(C)C1=O [compound 363, cyclo(F-R-TZAla-cBuA-TyrOMe-Ahp-NMeF-aMeCl-ClAc)] ({CH2CO}-FR[Ala(thiazol-5-yl)][Cba]Y(Me)[Ahp(2)][NMeF][αMeC]-NH2; thioether N-8)",> 50.8
19,"CCCC[C@@H]1NC(=O)[C@H](Cc2cncnc2)NC(=O)[C@H](C)N(C)C(=O)[C@H](Cc2ccccc2)OC(=O)C23CC(CNC(=O)[C@H](Cc4ccccc4)N(C)C(=O)[C@H](CCCC)NC(=O)[C@H](Cc4ncccc4F)NC1=O)(C2)C3 [compound 229, cyclo(FLac-NMeA-PyrimAla-Nle-2Pal6F-Nle-NMeF-amBCP)] (cyclo([NMeA][Ala(pyrimidin-5-yl)][Nle][X30][Nle][NMeF][X1][PhLac]))",48.7
20,"CCCCC[C@@H]1NC(=O)[C@H](Cc2ccc(OC)cc2)NC(=O)[C@H](CC2CCC2)NC(=O)[C@H](Cc2cccnc2)NC(=O)[C@H](C)N(C)C(=O)[C@H](Cc2ccccc2)NC(=O)CSC[C@@](C)(C(N)=O)NC(=O)[C@H](Cc2ccccc2)N(C)C1=O [compound 158, cyclo(F-NMeA-3Pal-cBuA-TyrOMe-Ahp-NMeF-aMeCl-ClAc)] ({CH2CO}-F[NMeA][3Pal][Cba]Y(Me)[Ahp(2)][NMeF][αMeC]-NH2; thioether N-8)",> 50.8
21,"C[C@H]1C(=O)N[C@@H](Cc2cncnc2)C(=O)N[C@@H](CC2CC2)C(=O)N[C@@H](Cc2ccccc2F)C(=O)N[C@@H](CCC2CC2)C(=O)N(C)[C@@H](Cc2ccccc2)C(=O)NCC23CC(C2)(C3)C(=O)O[C@@H](Cc2ccccc2)C(=O)N1C [compound 114, cyclo(FLac-NMeA-PyrimAla-cPrA-Phe2F-hcPrA-NMeF-amBCP)] (cyclo([Ala(cPr)][Phe(2-F)][X31][NMeF][X1][PhLac][NMeA][Ala(pyrimidin-5-yl)]))",0.615
